Read-outs that look alike come from different tables or passages of the source.
Test system: HCV 1b-377-neo replicon cells
Assay: HCV replicon assay, HCV 1b-377-neo replicon cells (1b FRET)
Type: cell-based, Hepatitis C virus genotype 1b
Conditions: HCV 1b-377-neo replicon cells, HCV 1b genotype; for EC50: read-out: EC50 range against HCV 1b (Table 2, Range)
Summary of the method: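 Compounds tested in HCV genotype 1b-377-neo replicon cells with a FRET read-out. Cells resistant to a reference NS5A inhibitor through a Y2065H NS5A mutation were run alongside wild-type cells.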

Row | Compound | EC50 (Hepatitis C virus) [nM] | further results
1 | COC(=O)N[C@H]1CC[C@@H](C(=O)N2CCC[C@H]2c2ncc(-c3ccc(-c4ccc(-c5cnc([C@@H]6CCCN6C(=O)[C@H](NC(=O)OC)c6ccccc6)[nH]5)cc4)cc3)[nH]2)C1 [cj-63, methyl ((1R)-2-((2S)-2-(5-(4′-(2-((2S)-1-(((1R,3S)-3-((methoxycarbonyl)amino)cyclopentyl)carbonyl)-2-pyrrolidinyl)-1H-imidazol-5-yl)-4-biphenylyl)-1H-imidazol-2-yl)-1-pyrrolidinyl)-2-oxo-1-phenylethyl)carbamate] | 0.001 to 0.999 | 
2 | COC(=O)N[C@@H](C(=O)N1CCC[C@H]1c1nc(-c2ccc(-c3ccc(-c4cnc([C@@H]5CCCN5C(=O)C(c5cccnc5)N(C)C)[nH]4)cc3)cc2)c[nH]1)c1ccccc1 (stereo partly drawn) [Example 84-62, methyl ((1R)-2-((2S)-2-(4-(4′-(2-((2S)-1-((dimethylamino)(3-pyridinyl)acetyl)-2-pyrrolidinyl)-1H-imidazol-5-yl)-4-biphenylyl)-1H-imidazol-2-yl)-1-pyrrolidinyl)-2-oxo-1-phenylethyl)carbamate] | 0.001 to 0.999 | 
3 | CCN[C@@H](C(=O)N1CCC[C@H]1c1nc(-c2ccc(-c3ccc(-c4cnc([C@@H]5CCCN5C(=O)[C@H](NCC)c5ccccc5)[nH]4)cc3)cc2)c[nH]1)c1ccccc1 [Example F14, (1R)-N-ethyl-2-((2S)-2-(4-(4′-(2-((2S)-1-((2R)-2-(ethylamino)-2-phenylacetyl)-2-pyrrolidinyl)-1H-imidazol-5-yl)-4-biphenylyl)-1H-imidazol-2-yl)-1-pyrrolidinyl)-2-oxo-1-phenylethanamine] | 0.001 to 0.999 | 
4 | COC(=O)N[C@@H](C(=O)N1CCC[C@H]1c1ncc(-c2ccc(-c3ccc(-c4[nH]c([C@@H]5CCCN5C(=O)[C@H](NC(=O)OC)c5ccccc5)nc4C(=O)OC)cc3)cc2)[nH]1)c1ccccc1 [Example J16, methyl 2-((2S)-l-((2R)-2-((methoxycarbonyl)amino)-2-phenylacetyl)-2-pyrrolidinyl)-5-(4′-(2-((2S)-1-((2R)-2-((methoxycarbonyl)amino)-2-phenylacetyl)-2-pyrrolidinyl)-1H-imidazol-5-yl)-4-biphenylyl)-1H-imidazole-4-carboxylate] | 0.001 to 0.999 | 
5 | COC(=O)N[C@@H](C(=O)N1CCC[C@H]1c1ncc(-c2ccc(-c3ncc(-c4cnc([C@@H]5CCCN5C(=O)[C@H](NC(=O)OC)c5ccccc5)[nH]4)cn3)cc2)[nH]1)c1ccccc1 [Example 152j-2, methyl ((1R)-2-((2S)-2-(5-(2-(4-(2-((2S)-1-((2R)-2-((methoxycarbonyl)amino)-2-phenylacetyl)-2-pyrrolidinyl)-1H-imidazol-5-yl)phenyl)-5-pyrimidinyl)-1H-imidazol-2-yl)-1-pyrrolidinyl)-2-oxo-1-phenylethyl)carbamate] | 0.001 to 0.999 | 
6 | COC(=O)N[C@@H](C(=O)N1CCC[C@H]1c1ncc(-c2ccc(-c3ccc(-c4cnc([C@@H]5CCCN5C(=O)CN(C)C)[nH]4)cc3)cc2)[nH]1)c1ccccc1 [Example 37, methyl ((1R)-2-((2S)-2-(5-(4′-(2-((2S)-1-(N,N-dimethylglycyl)-2-pyrrolidinyl)-1H-imidazol-5-yl)-4-biphenylyl)-1H-imidazol-2-yl)-1-pyrrolidinyl)-2-oxo-1-phenylethyl)carbamate] | 0.001 to 0.999 | 
7 | COC(=O)N[C@H](C(=O)N1CCC[C@H]1c1ncc(-c2ccc(-c3ccc(-c4cnc([C@@H]5CCCN5C(=O)[C@@H](NC5=NCCN5)C(C)C)[nH]4)cc3)cc2)[nH]1)C(C)C [cj-11e, methyl ((1S)-1-(((2S)-2-(5-(4′-(2-((2S)-1-(N-(4,5-dihydro-1H-imidazol-2-yl)-L-valyl)-2-pyrrolidinyl)-1H-imidazol-5-yl)-4-biphenylyl)-1H-imidazol-2-yl)-1-pyrrolidinyl)carbonyl)-2-methylpropyl)carbamate] | 1000 to 10000 | 
8 | COC(=O)N[C@@H](C(=O)N1CCC[C@H]1c1ncc(-c2ccc(-c3ccc(-c4cnc([C@@H]5CCCN5C(=O)Cc5cccnc5)[nH]4)cc3)cc2)[nH]1)c1ccccc1 [Example 47, methyl ((1R)-2-oxo-1-phenyl-2-((2S)-2-(5-(4′-(2-((2S)-1-(3-pyridinylacetyl)-2-pyrrolidinyl)-1H-imidazol-5-yl)-4-biphenylyl)-1H-imidazol-2-yl)-1-pyrrolidinyl)ethyl)carbamate] | 0.001 to 0.999 | 
9 | COC(=O)NC(C(=O)N1CCCC1c1nc(-c2ccc(-c3ccc(-c4cnc(C5CCCN5C(=O)CN5CCCC5)[nH]4)cc3)cc2)c[nH]1)c1ccccc1 [Example 58, methyl ((1R)-2-oxo-1-phenyl-2-((2S)-2-(5-(4′-(2-((2S)-1-(1-pyrrolidinylacetyl)-2-pyrrolidinyl)-1H-imidazol-5-yl)-4-biphenylyl)-1H-imidazol-2-yl)-1-pyrrolidinyl)ethyl)carbamate] |  | EC50: 0.001 to 0.999 nM
10 | CC(C)(C)OC(=O)N1CCC(C(=O)N2CCC[C@H]2c2ncc(-c3ccc(-c4ccc(-c5cnc([C@@H]6CCCN6C(=O)[C@@H](c6ccccc6)N6CCCCC6)[nH]5)cc4)cc3)[nH]2)CC1 [Example 107-9, tert-butyl 4-(((2S)-2-(5-(4′-(2-((2S)-1-((2R)-2-phenyl-2-(1-piperidinyl)acetyl)-2-pyrrolidinyl)-1H-imidazol-5-yl)-4-biphenylyl)-1H-imidazol-2-yl)-1-pyrrolidinyl)carbonyl)-1-piperidinecarboxylate] | 0.001 to 0.999 | 
11 | CN(C)[C@@H](C(=O)N1CCC[C@H]1c1ncc(-c2ccc(-c3ccc(-c4cnc([C@@H]5CCCN5C(=O)[C@@H](c5ccccc5)N5CCCCC5)[nH]4)cc3)cc2)[nH]1)c1ccccc1F [Example 28-5, (1R)-1-(2-fluorophenyl)-N,N-dimethyl-2-oxo-2-((2S)-2-(5-(4′-(2-((2S)-1-((2R)-2-phenyl-2-(1-piperidinyl)acetyl)-2-pyrrolidinyl)-1H-imidazol-5-yl)-4-biphenylyl)-1H-imidazol-2-yl)-1-pyrrolidinyl)ethanamine] | 0.001 to 0.999 | 
12 | CN(C)[C@@H](C(=O)N1CCC[C@H]1c1ncc(-c2ccc(-c3ccc(-c4cnc([C@@H]5CCCN5C(=O)CNC(=O)c5ccccc5)[nH]4)cc3)cc2)[nH]1)c1ccccc1 [Example 94-6, N-(2-((2S)-2-(5-(4′-(2-((2S)-1-((2R)-2-(dimethylamino)-2-phenylacetyl)-2-pyrrolidinyl)-1H-imidazol-5-yl)-4-biphenylyl)-1H-imidazol-2-yl)-1-pyrrolidinyl)-2-oxoethyl)benzamide] |  | EC50 range against HCV 1b (Table 2, Range): C-D
13 | O=C([C@@H](c1ccccc1)N1CCCCC1)N1CC(F)(F)C[C@H]1c1nc(-c2ccc(-c3ccc(-c4cnc([C@@H]5CC(F)(F)CN5C(=O)[C@@H](c5ccccc5)N5CCCCC5)[nH]4)cc3)cc2)c[nH]1 [Example 24-8, 1,1′-(4,4′-biphenyldiylbis(1H-imidazol-4,2-diyl((2S)-4,4-difluoro-2,1-pyrrolidinediyl)((1R)-2-oxo-1-phenyl-2,1-ethanediyl)))dipiperidine] | 0.001 to 0.999 | 
14 | COC(=O)N[C@@H](C(=O)N1CCC[C@H]1c1ncc(-c2ccc(-c3ccc(-c4cnc([C@@H]5CCCN5C(=O)[C@H]5CCC(=O)N5)[nH]4)cc3)cc2)[nH]1)c1ccccc1 [Example 84-3] |  | EC50: 0.001 to 0.999 nM
15 | COC(=O)N[C@H](C(=O)N1CCC[C@H]1c1ncc(-c2ccc(-c3ccc(-c4[nH]c([C@@H]5CCCN5C(=O)[C@@H](NC(=O)OC)C(C)C)nc4C(F)(F)F)cc3)cc2)[nH]1)C(C)C [Example J39, methyl ((1S)-1-(((2S)-2-(5-(4′-(2-((2S)-1-((2S)-2-((methoxycarbonyl)amino)-3-methylbutanoyl)-2-pyrrolidinyl)-1H-imidazol-5-yl)-4-biphenylyl)-4-(trifluoromethyl)-1H-imidazol-2-yl)-1-pyrrolidinyl)carbonyl)-2-methylpropyl)carbamate] | 0.001 to 0.999 | 
16 | CCN(CC)[C@@H](C(=O)N1CCC[C@H]1c1ncc(-c2ccc(-c3ccc(-c4cnc([C@@H]5CCCN5C(=O)[C@H](NC(=O)OC)C5CC5)[nH]4)cc3)cc2)[nH]1)c1ccccc1 [Example M56, methyl ((1R)-1-cyclopropyl-2-((2S)-2-(5-(4′-(2-((2S)-1-((2R)-2-(diethylamino)-2-phenylacetyl)-2-pyrrolidinyl)-1H-imidazol-5-yl)-4-biphenylyl)-1H-imidazol-2-yl)-1-pyrrolidinyl)-2-oxoethyl)carbamate] | 1 to 99 | 
17 | COC(=O)N[C@@H](C(=O)N1CCC[C@H]1c1ncc(-c2ccc(-c3ccc(-c4cnc([C@@H]5CCCN5C(=O)[C@H](NC(=O)OC)c5ccccc5)[nH]4)c(F)c3)cc2)[nH]1)c1ccccc1 [Example D46, dimethyl ((3-fluoro-4,4′-biphenyldiyl)bis(1H-imidazole-5,2-diyl(2S)-2,1-pyrrolidinediyl((1R)-2-oxo-1-phenyl-2,1-ethanediyl))) biscarbamate] | 0.001 to 0.999 | 
18 | COC(=O)N[C@H](C(=O)N1CCC[C@H]1c1ncc(-c2ccc(-c3ccc(-c4cnc([C@@H]5CCCN5C(=O)[C@@H](NC(=O)OC)[C@H](C)CO)[nH]4)cc3)cc2)[nH]1)C(C)C [Example M107] | 1 to 99 | 
19 | COC(=O)N[C@@H](C(=O)N1CCC[C@H]1c1ncc(-c2ccc(-c3ccc(-c4cnc([C@@H]5CCCN5C(=O)c5ccc(N(C)C)cc5)[nH]4)cc3)cc2)[nH]1)c1ccccc1 [Example 84-33, methyl ((1R)-2-((2S)-2-(5-(4′-(2-((2S)-1-(4-(dimethylamino)benzoyl)-2-pyrrolidinyl)-1H-imidazol-5-yl)-4-biphenylyl)-1H-imidazol-2-yl)-1-pyrrolidinyl)-2-oxo-1-phenylethyl)carbamate] | 0.001 to 0.999 | 
20 | C=CC[C@H](NC(=O)OC)C(=O)N1CCC[C@H]1c1ncc(-c2ccc(-c3ccc(-c4cnc([C@@H]5CCCN5C(=O)[C@@H](c5ccccc5)N(CC)CC)[nH]4)cc3)cc2)[nH]1 [Example M60, methyl ((1S)-1-(((2S)-2-(5-(4′-(2-((2S)-1-((2R)-2-(diethylamino)-2-phenylacetyl)-2-pyrrolidinyl)-1H-imidazol-5-yl)-4-biphenylyl)-1H-imidazol-2-yl)-1-pyrrolidinyl)carbonyl)-3-buten-1-yl)carbamate] | 1 to 99 | 
